Test [1] has as its target T1, BRD9 bromodomain (Flag-BRD9 P133-K239; Swiss Prot Q9H8M2) (Homo sapiens, UniProt Q9H8M2).
T1 construct: His-Flag-BRD9 (P133-K239); Swiss Prot Q9H8M2; His6 with TEV site (mgsshhhhhhenlyfq/) (N, cleaved yes); made in house
T1 sequence (Q9H8M2 133-239): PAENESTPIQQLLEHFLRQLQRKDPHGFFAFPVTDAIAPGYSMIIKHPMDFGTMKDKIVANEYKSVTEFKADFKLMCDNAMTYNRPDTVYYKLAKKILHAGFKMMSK
Kind of test: BRD9 Bromodomain TR-FRET Competition Binding Assay. Particulars: competition with biotinylated BRD9 ligand; 90 minutes at room temperature. As to the method: Procedure: His-Flag-BRD9 (P133-K239; Swiss Prot Q9H8M2; SEQ ID NO:1 mgsshhhhhhenlyfq/gdykddddkgslevlfqg/[…] […]) was cloned, expressed, purified, and then treated with TEV protease. Cleaved His tag was removed by purification. The binding of a biotinylated small molecule ligand of BRD9 was assessed via the LANCE® TR-FRET platform (PerkinElmer), and the compounds were assayed for inhibitory activity against this interaction.
Results: A mixture of biotinylated-ligand and SureLight™ Allophycocyanin-Streptavidin (APC-SA, PerkinElmer AD0201) in 50 mM HEPES (pH 7.4), 50 mM NaCl, 1 mM TCEP (pH 7), 0.01% (v/v) Tween-20, 0.01% (w/v) bovine serum albumin was added to a white 384-well PerkinElmer Proxiplate Plus plate. DMSO or 3-fold serially diluted compounds were then added to the Proxiplate followed by addition of Flag-BRD9. After a 10-minute incubation at room temperature, Eu-W1024 anti-FLAG (PerkinElmer, AD0273) was added. The final reaction mixture that contained 3.75 nM biotinylated ligand, 3 nM Flag-BRD9, 7.5 nM SureLight™ Allophycocyanin-Streptavidin, and 0.2 nM Eu-W1024 anti-FLAG was incubated at room temperature for 90 minutes.
The plates were then read on a PerkinElmer Envision plate reader to determine the ratio of emission at 665 nm over 615 nm. […]

Test [2] deals with T2, Nanoluciferase-BRD9 fusion protein (3×FLAG-NLuc-BRD9) in SYO-1 cells (Homo sapiens, UniProt Q9H8M2).
T2 construct: expressed in transfected cells; host or cells: SYO-1
T2 sequence (Q9H8M2 1-597): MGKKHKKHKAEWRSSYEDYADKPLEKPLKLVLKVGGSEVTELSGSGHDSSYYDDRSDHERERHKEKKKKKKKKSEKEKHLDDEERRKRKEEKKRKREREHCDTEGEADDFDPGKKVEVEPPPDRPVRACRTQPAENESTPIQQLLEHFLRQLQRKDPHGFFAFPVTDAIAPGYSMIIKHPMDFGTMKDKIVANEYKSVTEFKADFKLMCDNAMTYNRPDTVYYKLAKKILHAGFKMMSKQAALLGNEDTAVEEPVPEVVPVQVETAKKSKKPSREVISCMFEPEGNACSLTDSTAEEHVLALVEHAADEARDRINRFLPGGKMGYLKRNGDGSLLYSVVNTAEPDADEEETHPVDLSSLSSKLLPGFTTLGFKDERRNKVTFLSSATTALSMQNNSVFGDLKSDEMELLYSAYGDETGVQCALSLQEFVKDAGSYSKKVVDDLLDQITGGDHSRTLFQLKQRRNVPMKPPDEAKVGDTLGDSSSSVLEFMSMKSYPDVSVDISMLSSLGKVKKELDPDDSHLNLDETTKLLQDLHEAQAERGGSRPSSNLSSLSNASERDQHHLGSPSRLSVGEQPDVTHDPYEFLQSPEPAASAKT
Description: SYO1 BRD9 NanoLuc Degradation Assay. It is filed as cell-based. The conditions noted are these: 6 hours; SYO-1 cells expressing 3×FLAG-NLuc-BRD9; top dose 1 μM; read-out: SYO1 BRD9-NanoLuc degradation IC50. The procedure, abridged:
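Stable 3×FLAG-NLuc-BRD9 SYO-1 line, 8000 cells/well, dosed day 1 with 10-point 3-fold dilutions (1 μM final top, duplicates) for 6 h. NanoLuc bioluminescence read with Nano-Glo; % inhibition relative to DMSO (high) and 1 μM reference BRD9 degrader (low) controls.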

The record followed here is patent US12391686B2, “Compounds and uses thereof” (Foghorn Therapeutics Inc., priority 2019, dated 2025).

In general, IC50 refers to the concentration that gives 50% inhibition. A higher IC50 goes with lower potency. `COc1cc(-c2cn(C)c(=O)c3cnc(N(C)C)cc23)cc(OC)c1CN1CCC2(CC1)CN(C(=O)CCCOc1cccc3c1C(=O)N(C1CCC(=O)NC1=O)C3=O)CCO2` (centres unmarked) [Compound D18, 4-(4-(9-(4-(6-(dimethylamino)-2-methyl-1-oxo-1,2-dihydro-2,7-naphthyridin-4-yl)-2,6-dimethoxybenzyl)-1-oxa-4,9-diazaspiro[5.5]undecan-4-yl)-4-oxobutoxy)-2-(2,6-dioxopiperidin-3-yl)isoindoline-1,3-dione formic acid] displayed an IC50 in test [1] below 10 nM. Besides, the DC50 in test [2] was below 10 nM.

Regarding `CNc1cc2c(=O)n(C)cc(-c3cc(OC)c(CN4CCN(C(=O)CCCOc5cccc6c5C(=O)N(C5CCC(=O)NC5=O)C6=O)CC4)c(OC)c3)c2cn1` (centres unmarked) [Compound D17, 4-(4-(4-(2,6-dimethoxy-4-(2-methyl-7-(methylamino)-1-oxo-1,2-dihydro-2,6-naphthyridin-4-yl)benzyl)piperazin-1-yl)-4-oxobutoxy)-2-(2,6-dioxopiperidin-3-yl)isoindoline-1,3-dione formic acid], in test [1], the half-inhibitory concentration (IC50) was at least 10 nM. The DC50 in test [2] is below 10 nM.

Regarding `COc1cc(-c2cn(C)c(=O)c3cnc(N(C)C)cc23)cc(OC)c1CN1CCC(CCN2CCN(c3ccc4c(c3)C(=O)N(C3CCC(=O)NC3=O)C4=O)CC2)CC1` (centres unmarked) [Compound D20, 5-(4-(2-(1-(4-(6-(dimethylamino)-2-methyl-1-oxo-1,2-dihydro-2,7-naphthyridin-4-yl)-2,6-dimethoxybenzyl)piperidin-4-yl)ethyl)piperazin-1-yl)-2-(2,6-dioxopiperidin-3-yl)isoindoline-1,3-dione formic acid], the IC50 in test [1] was below 10 nM. In addition, the DC50 in test [2] was below 10 nM.

`COc1cc(-c2cn(C)c(=O)c3cc(NCCCCCOc4cccc5c4C(=O)N(C4CCC(=O)NC4=O)C5=O)ncc23)c(OC)cc1CN(C)C` (centres unmarked) [Compound D25, 4-((5-((8-(4-((dimethylamino)methyl)-2,5-dimethoxyphenyl)-6-methyl-5-oxo-5,6-dihydro-2,6-naphthyridin-3-yl)amino)pentyl)oxy)-2-(2,6-dioxopiperidin-3-yl)isoindoline-1,3-dione] yielded a concentration for half-maximal inhibition (IC50) in test [1] of at least 1000 nM. The DC50 in test [2] is at least 100 nM.

In test [1], `COc1cc(-c2cn(C)c(=O)c3cnc(N(C)C)cc23)cc(OC)c1CN1CC[C@H]1C(=O)N(C)Cc1cccc2c1C(=O)N(C1CCC(=O)NC1=O)C2=O` (stereo partly drawn) [Compound D4, (2S)-1-(4-(6-(dimethylamino)-2-methyl-1-oxo-1,2-dihydro-2,7-naphthyridin-4-yl)-2,6-dimethoxybenzyl)-N-((2-(2,6-dioxopiperidin-3-yl)-1,3-dioxoisoindolin-4-yl)methyl)-N-methylazetidine-2-carboxamide formic acid] registered an IC50 below 10 nM. In addition, the DC50 in test [2] was at least 100 nM.

In turn, `COc1cc(-c2cn(C)c(=O)c3cnc(N(C)CCOCCOCCNc4ccc5c(c4)C(=O)N(C4CCC(=O)NC4=O)C5=O)cc23)cc(OC)c1CN(C)C` (centres unmarked) [Compound D22, 5-[10-(5-[4-[(dimethylamino)methyl]-3,5-dimethoxyphenyl]-7-methyl-8-oxo-2,7-naphthyridin-3-yl)-4,7-dioxa-1,10-diazaundecan-1-yl]-2-(2,6-dioxopiperidin-3-yl)isoindole-1,3-dione formic acid] came in with an IC50 in test [1] of at least 10 nM. In test [2], the DC50 is at least 100 nM.

In test [1], `COc1cc(-c2cn(C)c(=O)c3cnc(NCCOCCOCCNc4cccc5c4C(=O)N(C4CCC(=O)NC4=O)C5=O)cc23)cc(OC)c1CN(C)C` (centres unmarked) [Compound D10, 4-[[2-(2-[2-[(5-[4-[(dimethylamino)methyl]-3,5-dimethoxyphenyl]-7-methyl-8-oxo-2,7-naphthyridin-3-yl)amino]ethoxy]ethoxy)ethyl]amino]-2-(2,6-dioxopiperidin-3-yl)isoindole-1,3-dione formic acid] came in with a half-inhibitory concentration (IC50) of at least 10 nM. Also, the DC50 in test [2] was at least 10 nM.
